# What was measured:
# [1] = system: bleomycin-induced mouse model; conditions: cited from earlier work
# [2] = system: bleomycin-induced mouse model; conditions: inflammatory phase and fibrogenic phase; cited from earlier work
# TPH1 = target: T1, TPH1 (Mus musculus, UniProt P17532); conditions: amorphous form, U.S. Pat. No. 9,199,994 Example 63i and Table 27; cited from earlier work
# T1 construct: host or cells: mice (in vivo)
# T1 sequence (P17532 1-447): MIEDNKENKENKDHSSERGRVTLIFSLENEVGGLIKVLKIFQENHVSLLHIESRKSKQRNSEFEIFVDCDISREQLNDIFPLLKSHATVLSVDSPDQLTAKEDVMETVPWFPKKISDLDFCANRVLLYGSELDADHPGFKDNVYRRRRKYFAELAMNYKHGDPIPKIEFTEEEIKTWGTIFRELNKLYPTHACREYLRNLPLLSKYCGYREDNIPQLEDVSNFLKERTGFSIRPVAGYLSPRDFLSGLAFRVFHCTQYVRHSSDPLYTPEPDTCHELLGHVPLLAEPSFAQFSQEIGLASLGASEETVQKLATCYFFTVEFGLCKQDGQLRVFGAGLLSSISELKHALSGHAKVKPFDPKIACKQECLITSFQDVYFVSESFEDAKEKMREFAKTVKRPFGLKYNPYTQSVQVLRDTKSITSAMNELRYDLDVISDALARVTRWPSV
# [3] = stability and shelf life of the crystalline polymorphs of Compound A; assay type: physicochemical; conditions: compared to the crystalline Form 1 polymorph; particularly at temperatures of less than 95° C.
# Text: The compound may be used to prevent or treat IPF in either an amorphous or crystalline form. Two different polymorph crystalline forms are identified by x-ray powder diffraction patterns set forth in FIG. 1 (Form 3) and FIG. 2 (Form 1) as well as Tables 1 and 2 (Form 3) and Tables 3 and 4 (Form 1).
smiles,measurement,setting,value
CCN(CC)C(=O)N[C@H]1C[C@@H]2c3cccc4[nH]cc(c34)C[C@H]2N(C)C1 [terguride],"lung function, histology and collagen content","[1]; bleomycin-induced mouse model, treated mice",improved lung function and histology and collagen content
same,tolerability,"[1]; mouse, in vivo",well-tolerated
same,efficacy in attenuating pulmonary fibrosis,[2],attenuating in both the inflammatory phase and the fibrogenic phase
"CCOC(=O)[C@@H]1CC2(CCN(c3cc(O[C@H](c4ccc(Cl)cc4-c4ccccc4)C(F)(F)F)nc(N)n3)CC2)CN1 [Compound A, (S)-ethyl 8-(2-amino-6-((R)-1-(5-chloro-[1,1′-biphenyl]-2-yl)-2,2,2-trifluoroethoxy)pyrimidin-4-yl)-2,8-diazaspiro[4.5]decane-3-carboxylate]",efficacy in inhibiting TPH1 in mice,TPH1,demonstrated
"CCOC(=O)[C@@H]1CC2(CCN(c3cc(O[C@H](c4ccc(Cl)cc4-c4ccccc4)C(F)(F)F)nc(N)n3)CC2)CN1 [crystalline Form 3, (S)-ethyl 8-(2-amino-6-((R)-1-(5-chloro-[1,1′-biphenyl]-2-yl)-2,2,2-trifluoroethoxy)pyrimidin-4-yl)-2,8-diazaspiro[4.5]decane-3-carboxylate]",stability and shelf life,[3],substantially greater stability and shelf life
CC1CCN(CC[C@H]2CCCN2S(=O)(=O)c2cccc(O)c2)CC1 [SB-269970],efficacy in attenuating pulmonary fibrosis,[2],attenuating in both the inflammatory phase and the fibrogenic phase

# From US20220047594A1, “METHOD FOR TREATING INTERSTITIAL LUNG DISEASE” (ALTAVANT SCIENCES GmbH, priority 2018, published 2022)
